Source: patent US10738056B2 (Aduro BioTech, Inc., priority 2017, dated 2020)

Columns and labels:
[1] = target: Human cGAS amino acids 155-522 (Homo sapiens (Human), UniProt Q8N884); experiment: cGAS biochemical activity assay (ATP remaining, Kinase-Glo Max luminescence); settings: human cGAS 155-522, ATP remaining (Kinase-Glo Max); read-out: cGAS IC50
[2] = test system: cGAS/STING pathway in THP1 cells; experiment: THP1 cell-based cGAS/STING pathway activity assay (IRF-3-linked luciferase reporter); settings: Homo sapiens, THP-1
How it was run: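 THP1 cells carrying an IRF-3-driven luciferase reporter were read across a range of compound concentrations, and IC50 values were derived from these concentration responses; the assay upper limit was 100 μM.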

[3] = test system: RANTES/CCL5 secretion by Trex1-KO BMM; experiment: Inhibition of RANTES/CCL5 secretion by Trex1-KO bone marrow-derived macrophages; type: cell-based, mice; parameters: key to BMM IC50 R (RANTES): A: an IC50 value less than 5 μM; B: an IC50 value between 5 and 20 μM; where an IC50 value could not be calculated from the data; settings: RANTES secretion; for IC50: Mus musculus, Macrophage, read-out: BMM IC50 R (RANTES)
Experimental: (§1) A cellular assay can be used to asses the compounds of the invention for their ability to inhibit cytokine production. Bone marrow macrophages harvested from mice can be used to determine response as a function of compound concentration.
(§2) The inhibition of secreted cytokine was measured in bone marrow-derived macrophages (BMMs) from diseased mice to evaluate the potency of compounds of the invention as described herein. […] To derive bone marrow macrophages, marrow extracted from the femurs and tibias were harvested from Trex1-KO mice was cultured in growth media supplemented with macrophage colony-stimulating factor (M-CSF). Differentiated BMM were harvested and frozen for subsequent experimentation. For treatment with compound C1089 (see Example 13), a frozen stock of Trex1-KO BMM was thawed and 1×10^5 cells were plated in 96 well format. BMMs were treated with a dilution series of C1089 and incubated overnight at 37° C. 5% CO2, at which point cellular supernatants were harvested and stored at −80° C. for subsequent analysis. The media used for this dilution series was without FBS. Remaining cells were evaluated for viability using Cell Titer Glo 2.0 kit according to the manufacturer instructions. BMM supernatants were evaluated for the secreted cytokine […] (RANTES/CCL5) or for secreted cytokine monocyte chemoattractant protein 1 (MCP-1/CCL2) using cytometric bead array mouse Flex Set kits (BD Biosciences). Cytokine concentration was calculated from a standard curve and normalized to vehicle (DMSO) treated cells.

[4] = test system: MCP-1/CCL2 secretion by Trex1-KO BMM; experiment: Inhibition of MCP-1/CCL2 secretion by Trex1-KO bone marrow-derived macrophages; type: cell-based, mice; parameters: key to BMM IC50 M (MCP-1): A: an IC50 value less than 5 μM; B: an IC50 value between 5 and 20 μM; where an IC50 value could not be calculated from the data; settings: MCP-1 secretion
Experimental: as §1, §2

Human cGAS amino acids 155-522, sequence (Q8N884 157-522): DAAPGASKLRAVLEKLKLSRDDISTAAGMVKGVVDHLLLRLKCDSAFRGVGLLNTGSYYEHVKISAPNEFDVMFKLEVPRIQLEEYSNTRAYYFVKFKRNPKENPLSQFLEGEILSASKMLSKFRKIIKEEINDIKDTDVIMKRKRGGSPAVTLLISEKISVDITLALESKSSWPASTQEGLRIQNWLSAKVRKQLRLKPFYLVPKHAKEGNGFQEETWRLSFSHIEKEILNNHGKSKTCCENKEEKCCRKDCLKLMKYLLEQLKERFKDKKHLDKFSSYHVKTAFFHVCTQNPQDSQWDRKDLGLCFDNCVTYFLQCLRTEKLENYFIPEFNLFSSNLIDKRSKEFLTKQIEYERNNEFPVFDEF

COc1ccc(Cl)c2oc(-c3c(C)[nH]c4c(-c5ccccc5)c(C#N)nn4c3=O)nc12 [Compound C1205, 6-(7-chloro-4-methoxybenzo[d]oxazol-2-yl)-5-methyl-7-oxo-3-phenyl-4,7-dihydropyrazolo[1,5-a]pyrimidine-2-carbonitrile]
IC50 [1]: < 20 µM | IC50 [2]: > 100 µM | BMM IC50 R (RANTES) [3]: C | BMM IC50 M (MCP-1) [4]: C

COCc1[nH]c2c(-c3ccccc3)c(C#N)nn2c(=O)c1-c1nc2c(OC)cc(Cl)cc2o1 [Compound C1145, 6-(6-chloro-4-methoxybenzo[d]oxazol-2-yl)-5-(methoxymethyl)-7-oxo-3-phenyl-4,7-dihydropyrazolo[1,5-a]pyrimidine-2-carbonitrile]
IC50 [1]: < 20 µM | IC50 [2]: < 20 µM | BMM IC50 R (RANTES) [3]: C | BMM IC50 M (MCP-1) [4]: C

COc1cc(N)cc2oc(-c3c(C)[nH]c4c(-c5ccccc5)c(C#N)nn4c3=O)nc12 [Compound C1175, 6-(6-amino-4-methoxybenzo[d]oxazol-2-yl)-5-methyl-7-oxo-3-phenyl-4,7-dihydropyrazolo[1,5-a]pyrimidine-2-carbonitrile]
IC50 [1]: < 20 µM | IC50 [2]: 20 to 100 µM | BMM IC50 R (RANTES) [3]: C | BMM IC50 M (MCP-1) [4]: C

Cc1[nH]c2c(-c3ccccc3)c(C(F)(F)F)nn2c(=O)c1-c1nnc(C#N)o1 [Compound D1071, 5-(5-methyl-7-oxo-3-phenyl-2-(trifluoromethyl)-4,7-dihydropyrazolo[1,5-a]pyrimidin-6-yl)-1,3,4-oxadiazole-2-carbonitrile]
IC50 [1]: < 20 µM | IC50 [2]: < 20 µM | IC50 [3]: < 5 µM | IC50 ([4]; Mus musculus, Macrophage, read-out: BMM IC50 M (MCP-1)): 5 to 20 µM

Cc1[nH]c2c(-c3ccccc3)c(C(F)(F)F)nn2c(=O)c1C(=O)Nc1cc(Br)cc(CN(C)C)c1 [Compound A1139, N-(3-bromo-5-((dimethylamino)methyl)phenyl)-5-methyl-7-oxo-3-phenyl-2-(trifluoromethyl)-4,7-dihydropyrazolo[1,5-a]pyrimidine-6-carboxamide]
IC50 [1]: < 20 µM | IC50 [2]: < 20 µM | BMM IC50 R (RANTES) [3]: C | BMM IC50 M (MCP-1) [4]: C

COc1cccc2oc(-c3c(Cl)[nH]c4c(-c5ccccc5)c(C(F)(F)F)nn4c3=O)nc12 [Compound C1071, 5-chloro-6-(4-methoxybenzo[d]oxazol-2-yl)-3-phenyl-2-(trifluoromethyl)pyrazolo[1,5-a]pyrimidin-7(4H)-one]
IC50 [1]: < 20 µM | IC50 [2]: < 20 µM | BMM IC50 R (RANTES) [3]: C | BMM IC50 M (MCP-1) [4]: C

COc1c(Br)ccc2oc(-c3c(C)[nH]c4c(-c5ccccc5)c(C(F)(F)F)nn4c3=O)nc12 [Compound C1082, 6-(5-bromo-4-methoxybenzo[d]oxazol-2-yl)-5-methyl-3-phenyl-2-(trifluoromethyl)pyrazolo[1,5-a]pyrimidin-7(4H)-one]
IC50 [1]: < 20 µM | IC50 [2]: < 20 µM | BMM IC50 R (RANTES) [3]: C | BMM IC50 M (MCP-1) [4]: C

COc1nccc2oc(-c3c(C)[nH]c4c(-c5ccccc5)c(C#N)nn4c3=O)nc12 [Compound C1167, 6-(4-methoxyoxazolo[4,5-c]pyridin-2-yl)-5-methyl-7-oxo-3-phenyl-4,7-dihydropyrazolo[1,5-a]pyrimidine-2-carbonitrile]
IC50 [1]: < 20 µM | IC50 [2]: < 20 µM | BMM IC50 R (RANTES) [3]: C | BMM IC50 M (MCP-1) [4]: C

COc1cccc2oc(-c3c(C(F)(F)F)[nH]c4c(-c5ccccc5)c(C(F)(F)F)nn4c3=O)nc12 [Compound C1077, 6-(4-methoxybenzo[d]oxazol-2-yl)-3-phenyl-2,5-bis(trifluoromethyl)pyrazolo[1,5-a]pyrimidin-7(4H)-one]
IC50 [1]: < 20 µM | IC50 [2]: < 20 µM | BMM IC50 R (RANTES) [3]: C | BMM IC50 M (MCP-1) [4]: C

CCOC(=O)Cc1[nH]c2c(-c3ccccc3)c(C(F)(F)F)nn2c(=O)c1-c1nc2c(OC)cccc2o1 [Compound C1140, ethyl 2-(6-(4-methoxybenzo[d]oxazol-2-yl)-7-oxo-3-phenyl-2-(trifluoromethyl)-4,7-dihydropyrazolo[1,5-a]pyrimidin-5-yl)acetate]
IC50 [1]: 20 to 250 µM | BMM IC50 R (RANTES) [3]: C | BMM IC50 M (MCP-1) [4]: C

Cc1[nH]c2c(-c3ccccc3)c(C(F)(F)F)nn2c(=O)c1-c1nc2cccc(N)c2[nH]1 [Compound C1008, 6-(7-amino-1H-benzo[d]imidazol-2-yl)-5-methyl-3-phenyl-2-(trifluoromethyl)pyrazolo[1,5-a]pyrimidin-7(4H)-one]
IC50 [1]: 20 to 250 µM | IC50 [2]: > 100 µM | BMM IC50 M (MCP-1) [4]: C

COc1cccc2oc(-c3c(C)[nH]c4c(-c5ccccc5)c(C(F)(F)F)nn4c3=O)nc12 [Compound C1014, 6-(4-methoxybenzo[d]oxazol-2-yl)-5-methyl-3-phenyl-2-(trifluoromethyl)pyrazolo[1,5-a]pyrimidin-7(4H)-one]
IC50 [1]: < 20 µM | IC50 [2]: < 20 µM | BMM IC50 M (MCP-1) [4]: C

COc1ccc(Cl)c2oc(-c3c(C)[nH]c4c(-c5ccccc5)c(C(F)(F)F)nn4c3=O)nc12 [Compound C1094, 6-(7-chloro-4-methoxybenzo[d]oxazol-2-yl)-5-methyl-3-phenyl-2-(trifluoromethyl)pyrazolo[1,5-a]pyrimidin-7(4H)-one]
IC50 [1]: < 20 µM | IC50 [2]: < 20 µM | IC50 [3]: < 5 µM | BMM IC50 M (MCP-1) [4]: C

COCc1[nH]c2c(-c3ccccc3)c(C(F)(F)F)nn2c(=O)c1-c1c(COC)[nH]c2c(-c3ccccc3)c(C(F)(F)F)nn2c1=O [Compound C1029, 5,5′-bis(methoxymethyl)-3,3′-diphenyl-2,2′-bis(trifluoromethyl)-[6,6′-bipyrazolo[1,5-a]pyrimidine]-7,7′(4H,4′H)-dione]
IC50 [1]: 20 to 250 µM | BMM IC50 R (RANTES) [3]: C | BMM IC50 M (MCP-1) [4]: C

COc1ccccc1NC(=O)c1c(C)[nH]c2c(C3CCCC3)c(C(F)(F)F)nn2c1=O [Compound A1052, 3-cyclopentyl-N-(2-methoxyphenyl)-5-methyl-7-oxo-2-(trifluoromethyl)-4,7-dihydropyrazolo[1,5-a]pyrimidine-6-carboxamide]
IC50 [1]: 20 to 250 µM | BMM IC50 M (MCP-1) [4]: C

COc1cccc2oc(-c3c(CC(=O)O)[nH]c4c(-c5ccccc5)c(C(F)(F)F)nn4c3=O)nc12 [Compound C1147, 2-(6-(4-methoxybenzo[d]oxazol-2-yl)-7-oxo-3-phenyl-2-(trifluoromethyl)-4,7-dihydropyrazolo[1,5-a]pyrimidin-5-yl)acetic acid]
IC50 [1]: 20 to 250 µM | BMM IC50 R (RANTES) [3]: C | BMM IC50 M (MCP-1) [4]: C

COCc1[nH]c2c(-c3ccccc3)c(C(F)(F)F)nn2c(=O)c1-c1nc2c(OC)cccc2o1 [Compound C1056, 6-(4-methoxybenzo[d]oxazol-2-yl)-5-(methoxymethyl)-3-phenyl-2-(trifluoromethyl)pyrazolo[1,5-a]pyrimidin-7(4H)-one]
IC50 [1]: < 20 µM | IC50 [2]: < 20 µM | BMM IC50 M (MCP-1) [4]: C

COc1cccc2oc(-c3c(C4CCC(CO)C4)[nH]c4c(-c5ccccc5)c(C(F)(F)F)nn4c3=O)nc12 (stereo not drawn) [Compound C1236, 5-(3-(hydroxymethyl)cyclopentyl)-6-(4-methoxybenzo[d]oxazol-2-yl)-3-phenyl-2-(trifluoromethyl)pyrazolo[1,5-a]pyrimidin-7(4H)-one]
IC50 [1]: < 20 µM | BMM IC50 R (RANTES) [3]: C | BMM IC50 M (MCP-1) [4]: C

Cc1[nH]c2c(-c3ccccc3)c(C(F)(F)F)nn2c(=O)c1C(=O)Nc1ccccc1NS(=O)(=O)c1ccccc1 [Compound A1059, 5-methyl-7-oxo-3-phenyl-N-(2-(phenylsulfonamido)phenyl)-2-(trifluoromethyl)-4,7-dihydropyrazolo[1,5-a]pyrimidine-6-carboxamide]
IC50 [1]: < 20 µM | IC50 [2]: < 20 µM | BMM IC50 M (MCP-1) [4]: C

Cc1[nH]c2c(-c3ccccc3)c(C(F)(F)F)nn2c(=O)c1-c1nc2ccccc2n1C1CCCCC1 [Compound C1190, 6-(1-cyclohexyl-1H-benzo[d]imidazol-2-yl)-5-methyl-3-phenyl-2-(trifluoromethyl)pyrazolo[1,5-a]pyrimidin-7(4H)-one]
IC50 [1]: 20 to 250 µM | BMM IC50 R (RANTES) [3]: C | BMM IC50 M (MCP-1) [4]: C

COc1cccc2c1nc(-c1c(C)[nH]c3c(-c4ccccc4)c(C(F)(F)F)nn3c1=O)n2C1CCCCC1 [Compound C1176, 6-(1-cyclohexyl-4-methoxy-1H-benzo[d]imidazol-2-yl)-5-methyl-3-phenyl-2-(trifluoromethyl)pyrazolo[1,5-a]pyrimidin-7(4H)-one]
IC50 [1]: 20 to 250 µM | BMM IC50 R (RANTES) [3]: C | BMM IC50 M (MCP-1) [4]: C
